Test results published in the supplement of paper PMC10307832.

Key:
Experiment in all cases: relative viability (nuclei count vs DMSO), 5 days (fraction); higher = more cells survive
NCI-H2347 = test system: NCI-H2347
Outline: (§1)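 Five library-drug doses in √10 steps were combined with a fixed anchor-drug dose, or a single drug was given alone, by pin tool to lung cancer cell lines in 1536-well plates the day after seeding. Nuclei were stained and counted after 5 days. Relative viability is the nuclei count in treated wells over that in vehicle wells, taken as the median of duplicate plates.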

NCI-H1651 = test system: NCI-H1651
Outline: as §1

NCI-H2126 = test system: NCI-H2126
Outline: as §1

HCC-15 = test system: HCC-15
Outline: as §1

NCI-H1993 = test system: NCI-H1993
Outline: as §1

PC-14 = test system: PC-14
Outline: as §1

HCC-44 = test system: HCC-44
Outline: as §1

NCI-H1355 = test system: NCI-H1355
Outline: as §1

NCI-H838 = test system: NCI-H838
Outline: as §1

SW 1573 = test system: SW 1573
Outline: as §1

UMC-11 = test system: UMC-11
Outline: as §1

HOP-62 = test system: HOP-62
Outline: as §1

LC-2-ad = test system: LC-2-ad
Outline: as §1

LU99A = test system: LU99A
Outline: as §1

NCI-H650 = test system: NCI-H650
Outline: as §1

COR-L23 = test system: COR-L23
Outline: as §1

ABC-1 = test system: ABC-1
Outline: as §1

HARA = test system: HARA
Outline: as §1

EPLC-272H = test system: EPLC-272H
Outline: as §1

NCI-H1915 = test system: NCI-H1915
Outline: as §1

NCI-H2085 = test system: NCI-H2085
Outline: as §1

NCI-H2023 = test system: NCI-H2023
Outline: as §1

SMILES: Nc1ccn([C@@H]2O[C@H](CO)[C@@H](O)[C@@H]2O)c(=O)n1 [Cytarabine] + Cc1nc(NC(=O)N2CCC[C@H]2C(N)=O)sc1-c1ccnc(C(C)(C)C(F)(F)F)c1 [Alpelisib] (partner 2 µM)
- relative viability (NCI-H2347; first compound 0.005 µM): 1.22
- relative viability (NCI-H2347; first compound 0.01581 µM): 0.964
- relative viability (NCI-H2347; first compound 0.05 µM): 0.868
- relative viability (NCI-H2347; first compound 0.1581 µM): 0.691
- relative viability (NCI-H2347; first compound 0.5 µM): 0.663
- relative viability (NCI-H1651; first compound 0.005 µM): 0.817
- relative viability (NCI-H1651; first compound 0.01581 µM): 1.01
- relative viability (NCI-H1651; first compound 0.05 µM): 1.17
- relative viability (NCI-H1651; first compound 0.1581 µM): 0.401
- relative viability (NCI-H1651; first compound 0.5 µM): 0.261
- relative viability (NCI-H2126; first compound 0.005 µM): 0.765
- relative viability (NCI-H2126; first compound 0.01581 µM): 0.597
- relative viability (NCI-H2126; first compound 0.05 µM): 0.694
- relative viability (NCI-H2126; first compound 0.1581 µM): 0.564
- relative viability (NCI-H2126; first compound 0.5 µM): 0.408
- relative viability (HCC-15; first compound 0.005 µM): 0.832
- relative viability (HCC-15; first compound 0.01581 µM): 0.878
- relative viability (HCC-15; first compound 0.05 µM): 0.844
- relative viability (HCC-15; first compound 0.1581 µM): 0.745
- relative viability (HCC-15; first compound 0.5 µM): 0.546
- relative viability (NCI-H1993; first compound 0.005 µM): 0.691
- relative viability (NCI-H1993; first compound 0.01581 µM): 0.636
- relative viability (NCI-H1993; first compound 0.05 µM): 0.642
- relative viability (NCI-H1993; first compound 0.1581 µM): 0.501
- relative viability (NCI-H1993; first compound 0.5 µM): 0.517
- relative viability (PC-14; first compound 0.005 µM): 0.838
- relative viability (PC-14; first compound 0.01581 µM): 1.13
- relative viability (PC-14; first compound 0.05 µM): 1.05
- relative viability (PC-14; first compound 0.1581 µM): 0.512
- relative viability (PC-14; first compound 0.5 µM): 0.357
- relative viability (HCC-44; first compound 0.005 µM): 0.806
- relative viability (HCC-44; first compound 0.01581 µM): 0.726
- relative viability (HCC-44; first compound 0.05 µM): 0.586
- relative viability (HCC-44; first compound 0.1581 µM): 0.429
- relative viability (HCC-44; first compound 0.5 µM): 0.517
- relative viability (NCI-H1355; first compound 0.005 µM): 0.825
- relative viability (NCI-H1355; first compound 0.01581 µM): 0.758
- relative viability (NCI-H1355; first compound 0.05 µM): 0.756
- relative viability (NCI-H1355; first compound 0.1581 µM): 0.363
- relative viability (NCI-H1355; first compound 0.5 µM): 0.264
- relative viability (NCI-H838; first compound 0.005 µM): 0.886
- relative viability (NCI-H838; first compound 0.01581 µM): 1.12
- relative viability (NCI-H838; first compound 0.05 µM): 0.909
- relative viability (NCI-H838; first compound 0.1581 µM): 0.452
- relative viability (NCI-H838; first compound 0.5 µM): 0.252
- relative viability (SW 1573; first compound 0.005 µM): 0.793
- relative viability (SW 1573; first compound 0.01581 µM): 0.602
- relative viability (SW 1573; first compound 0.05 µM): 0.7
- relative viability (SW 1573; first compound 0.1581 µM): 0.219
- relative viability (SW 1573; first compound 0.5 µM): 0.182
- relative viability (UMC-11; first compound 0.005 µM): 0.496
- relative viability (UMC-11; first compound 0.01581 µM): 0.463
- relative viability (UMC-11; first compound 0.05 µM): 0.375
- relative viability (UMC-11; first compound 0.1581 µM): 0.192
- relative viability (UMC-11; first compound 0.5 µM): 0.18
- relative viability (HOP-62; first compound 0.005 µM): 0.793
- relative viability (HOP-62; first compound 0.01581 µM): 0.394
- relative viability (HOP-62; first compound 0.05 µM): 0.348
- relative viability (HOP-62; first compound 0.1581 µM): 0.0724
- relative viability (HOP-62; first compound 0.5 µM): 0.102
- relative viability (LC-2-ad; first compound 0.005 µM): 0.898
- relative viability (LC-2-ad; first compound 0.01581 µM): 0.785
- relative viability (LC-2-ad; first compound 0.05 µM): 0.802
- relative viability (LC-2-ad; first compound 0.1581 µM): 0.441
- relative viability (LC-2-ad; first compound 0.5 µM): 0.228
- relative viability (LU99A; first compound 0.005 µM): 0.519
- relative viability (LU99A; first compound 0.01581 µM): 0.565
- relative viability (LU99A; first compound 0.05 µM): 0.51
- relative viability (LU99A; first compound 0.1581 µM): 0.5
- relative viability (LU99A; first compound 0.5 µM): 0.406
- relative viability (NCI-H650; first compound 0.005 µM): 0.732
- relative viability (NCI-H650; first compound 0.01581 µM): 0.81
- relative viability (NCI-H650; first compound 0.05 µM): 0.468
- relative viability (NCI-H650; first compound 0.1581 µM): 0.218
- relative viability (NCI-H650; first compound 0.5 µM): 0.224
- relative viability (COR-L23; first compound 0.005 µM): 0.63
- relative viability (COR-L23; first compound 0.01581 µM): 0.472
- relative viability (COR-L23; first compound 0.05 µM): 0.458
- relative viability (COR-L23; first compound 0.1581 µM): 0.176
- relative viability (COR-L23; first compound 0.5 µM): 0.104
- relative viability (ABC-1; first compound 0.005 µM): 1.02
- relative viability (ABC-1; first compound 0.01581 µM): 1.4
- relative viability (ABC-1; first compound 0.05 µM): 1.09
- relative viability (ABC-1; first compound 0.1581 µM): 0.738
- relative viability (ABC-1; first compound 0.5 µM): 0.55
- relative viability (HARA; first compound 0.005 µM): 0.598
- relative viability (HARA; first compound 0.01581 µM): 0.376
- relative viability (HARA; first compound 0.05 µM): 0.416
- relative viability (HARA; first compound 0.1581 µM): 0.167
- relative viability (HARA; first compound 0.5 µM): 0.143
- relative viability (EPLC-272H; first compound 0.005 µM): 0.7
- relative viability (EPLC-272H; first compound 0.01581 µM): 0.781
- relative viability (EPLC-272H; first compound 0.05 µM): 0.609
- relative viability (EPLC-272H; first compound 0.1581 µM): 0.345
- relative viability (EPLC-272H; first compound 0.5 µM): 0.337
- relative viability (NCI-H1915; first compound 0.005 µM): 1.04
- relative viability (NCI-H1915; first compound 0.01581 µM): 0.915
- relative viability (NCI-H1915; first compound 0.05 µM): 0.851
- relative viability (NCI-H1915; first compound 0.1581 µM): 0.493
- relative viability (NCI-H1915; first compound 0.5 µM): 0.394
- relative viability (NCI-H2085; first compound 0.005 µM): 0.936
- relative viability (NCI-H2085; first compound 0.01581 µM): 0.827
- relative viability (NCI-H2085; first compound 0.05 µM): 0.869
- relative viability (NCI-H2085; first compound 0.1581 µM): 0.62
- relative viability (NCI-H2085; first compound 0.5 µM): 0.558
- relative viability (NCI-H2023; first compound 0.005 µM): 0.489
- relative viability (NCI-H2023; first compound 0.01581 µM): 0.391
- relative viability (NCI-H2023; first compound 0.05 µM): 0.182
- relative viability (NCI-H2023; first compound 0.1581 µM): 0.117
- relative viability (NCI-H2023; first compound 0.5 µM): 0.0764
